Experiments:
[1] = Gastric irritation in fasted rats; type: in vivo, Wistar rats; settings: oral gavage, overnight-fasted rats, 4 h after treatment, extract 5000 mg/kg; for Gastric irritation Total Score: total for three rats (0-4 each), aspirin 150 mg/kg (equal total salicylate)
Experimental: Wintergreen-derived, gaultherin-containing extract and aspirin were given by oral gavage to overnight-fasted Wistar rats (200+/−20 g). The 5000 mg/kg dose of wintergreen extract and the 150 mg/kg dose of aspirin used in the experiment contain equal total amounts of salicylate. Four hours after treatment, the stomach lining was harvested and scored for gastric irritation [Guth et al., Gastroenterology, 76: 88–93 (1979)]. A score of zero was given for no sign of hyperaemia (excess blood or engorgement with blood) or bleeding. A score of one was given when hyperaemia was evident. A score of two was given when some spot bleeding was observed. A score of three was assigned for any hyperaemia and spot bleeding and a score of four for hyperaemia and spot bleeding occurred over the entire stomach. The total aspirin score for three rats was nine as all three rats experienced some hyperaemia and spot bleeding. The total wintergreen-derived, gaultherin-containing extract score was two because only two of the three rats were noted to have some hyperaemia. Based on these responses, the gastric irritation caused by wintergreen extract was substantially less (approximately five times lower) than that caused by aspirin.

[2] = test system: platelet aggregation in vivo (bleeding time in mouse tail tips); test: In vivo bleeding time in mouse tail tips; design: species or system mice; settings: oral, pretreatment time 1 h, Aspirin 100 mg/kg
Experimental: Wintergreen-derived gaultherin containing extracts were also shown to inhibit platelet aggregation in vivo. […] The gaultherin-containing extract prolonged mouse bleeding times assessed at 1, 3, and 6 hours after treatment. Therefore, gaultherin-containing extracts prevent platelet aggregation in vitro and in vivo. In vivo assay: The gaultherin-containing extract was mixed with vehicle (2% Tween 80/distilled water) and orally administered to 5 ICR […] (22+2 g) at the doses given in Table V. After 1, 3, or 6 hours of treatment, the mice were suspended in holders and 0.5 mm of the tip of each tail was transected and immersed in a test tube containing saline at 37° C. The bleeding time is defined as the time required for the bleeding to cease for a period of greater than 15 seconds. Prolongation of the bleeding time over that of control animals was then calculated. Aspirin was used as the standard to ensure that the assay was performing as expected.

[3] = Rat hind paw inflammatory (edema and hyperalgesia) model, Freund's adjuvant; type: in vivo, Sprague-Dawley rats
Experimental: Wintergreen-derived gaultherin-containing extract was administered by per-oral gavage at human dose equivalents of 200 mg and 400 mg per day and Naproxen was administered at a dose of 440 mg per day. Male Sprague-Dawley rats (300–350 grams) were treated for 5 days by gavage. Inflammation (edema and hyperalgesia) was induced 3 days prior to treatment through intraplantar injection of Freund's adjuvant (containing 170 μg Mycobacterium butyricum). Edema was determined by physical measurements of paw thickness and ankle width. Pain tolerance (i.e., pain reduction) was mechanically assessed via digital Von Frey determinations using a series of measurements at 6 locations on the surface of a paw. [Ren et al., ILAR Journal, 40(3):1–12 (1999), Kayser et al., Pain, 28:99–107 (1987)] Measurement terminated at the point of paw withdrawal, auditable indication of discomfort, or animal shuddering. Measurements were performed on left and right paws.

## CC(=O)Oc1ccccc1C(=O)O [Aspirin, acetylsalicylic acid]
[1]
  Gastric irritation Total Score: 9
[1]; listed as aspirin
  Gastric irritation Total Score: nine
[1]; aspirin 150 mg/kg
  Gastric irritation Response: 100%
[2]
  Avg. Bleed Time, Exp. 2: 114 s
[2]; W. Extract 5000 mg/kg
  Avg. Bleed Time, Exp. 1: 120 s
[2]; W. Extract 5000 mg/kg, over control animals
  Prolongation of bleeding time, Exp. 1: 100%
[2]; over control animals
  Prolongation of bleeding time, Exp. 2: 73%

## COC(=O)c1ccccc1O[C@@H]1O[C@H](CO[C@@H]2OC[C@@H](O)[C@H](O)[C@H]2O)[C@@H](O)[C@H](O)[C@H]1O [Gaultherin, gaultherin]
[3]; 200 mg/day (human dose equivalent) for 5 days, per-oral gavage
  Edema reduction: 12.2%
[3]; 400 mg/day (human dose equivalent) for 5 days, per-oral gavage
  Edema reduction: 16.9%
[3]; human dose equivalent of 200 mg per day, 5 days, gavage
  improvement in pain tolerance (digital Von Frey): 6.7%
[3]; human dose equivalent of 400 mg per day, 5 days, gavage
  improvement in pain tolerance (digital Von Frey): 9.9%

## COc1ccc2cc([C@H](C)C(=O)O)ccc2c1 [Naproxen]
[3]; 440 mg per day, 5 days, gavage
  anti-inflammatory and analgesic effect: predictable anti-inflammatory and analgesic effect
[3]; 440 mg/day for 5 days, gavage
  Edema reduction: 28%

— US7033618B2, “Methods of administering gaultherin-containing compositions” (Rutgers University, The State University of New Jersey, priority 1999, dated 2006)
